Columns and labels:
[1] = test system: Kuramochi cells; experiment: BrdU cell proliferation assay (colorimetric ELISA), Kuramochi cells; format: cell-based; settings: class symbols A-D
Description: A BrdU assay was used as a measure of proliferation based on the DNA replication process of proliferating cells. BrdU, a pyrimidine analog, is added to the cell culture and incorporated into the DNA of proliferating cells. The presence of the BrdU analog was then measured through a colorimetric ELISA. After fixation and permeabilization of cells, peroxidase-conjugated antibody recognizing BrdU is added and allowed to incubate, followed by thorough washing to remove unbound antibody. In order to quantify the amount of bound antibody, peroxidase substrate is added and produces a color that can be measured at 450 nm.
On day −1, Kuramochi cells (Sekisui XenoTech JCRB0098) were seeded at 2,000 cells/well in columns 2-12 of a 96 well plate (Corning, CLS3596) in 150 uL media and allowed to adhere overnight at 37 degree with 5% CO2. In order to assess specificity of the compounds, Kuramochi RB^KO cells were also plated and treated, as RB^KO cells were not expected to show a proliferative response to CCNE/CDK specific inhibitors.
On day 0, the source plate was prepared by adding 10 mM compounds and performing 3-fold serial dilutions for a 4-point dose response of each compound. Using a multichannel pipette, 2 uL of the contents of the source plate were stamped into an intermediate plate with 500 uL of RPMI 1640 Media, GlutaMAX Supplement (Life Technologies, 61870127) in each well of a Nunc 96 DeepWell™ plate, non-treated 96 DeepWell plate, 2 mL/well, sterile, natural, 60/cs (Sigma Z717274) and mixed thoroughly. 50 uL from row A of this intermediate plate were added to rows A-H of one plate of previously seeded Kuramochi cells, and each subsequent row of the intermediate plate was added to a full plate of cells.
On day 4, the plates were developed using the BrdU ELISA Cell Proliferation Assay according to manufacturer's instructions (Roche, 11647229001). Briefly, BrdU was diluted 1:100 in Gibco®, Opti-MEM® and 20 μL/well was added, shaken for 10 minutes at 350 rpm, and then returned to the incubator for 1 hour. Following incubation, the medium was discarded, and the cells were fixed by adding 200 μL of Fix/Denature solution. The anti-BrdU peroxidase antibody was diluted 1:1000 in OptiMEM, added at 100 μL/well, and incubated while shaking (350 rpm) for one hour. Three washes with PBS were performed to remove any unbound antibody, followed by the addition of 100 μL of substrate solution to each well. […] was then added to halt the reaction, and plates were read out using an Envision spectrophotometer (Perkin Elmer) set to read 450 nm absorbance. Background absorbance values from empty wells were subtracted from all samples and then normalized to DMSO treated wells.

[2] = target: CDK2/Cyclin E1(14-475) (Homo sapiens, UniProt P24941); experiment: Caliper LabChip EZ Reader mobility shift assay, inhibition of CDK2/Cyclin E1 activity; format: biochemical; settings: class symbols A-D
Description: Inhibition of CDK2/Cyclin E1 activity in the presence of compounds of the present disclosure was evaluated using a Caliper LabChip® EZ Reader mobility shift assay. In the assay, activated CDK2/Cyclin E1 catalyzes the phosphorylation of a fluorescently tagged peptide 5-FAM-QSPKKG-CONH2 (PerkinElmer, FL Peptide 18) which induces a difference in capillary electrophoresis mobility. The peptide substrate and product were measured, and the conversion ratio was used to determine the inhibition (as % activity and IC50 values) of CDK2/Cyclin E1. Reactions contained 50 mM HEPES pH 7.5, 10 mM MgCl2, 1 mM EDTA, 2 mM DTT, 0.01% Brij35, 0.5 mg/mL BSA, 0.1% DMSO, 2.5 nM CDK2/Cyclin E1(14-475), 100 μM ATP, and 1.5 μM fluorescent peptide substrate.
Dose titrations of inhibitors in 100% DMSO were combined with 3.25 nM CDK2/Cyclin E1(14-475) and 130 μM of ATP in reaction buffer. The mixtures were incubated for 30 minutes before the addition of fluorescent peptide substrate to initiate the kinase reaction. The final conditions were 2.5 nM CDK2/Cyclin E1(14-475), 100 μM ATP, and 1.5 μM fluorescent peptide. The reactions were stopped after 100 minutes with the addition of EDTA (6 mM final EDTA concentration). The stopped reactions were analyzed on a Caliper LabChip® EZ Reader II. The conversion ratios were normalized to yield % activity, plotted against compound concentration, and fit to a four-parameter equation to determine the IC50 for each compound.

| IC50 [2] [µM] | SMILES | IC50 [1] [µM] |
| --- | --- | --- |
| > 10 | CNC(=O)[C@H](CCCc1ccccc1)NC(=O)C1CN(C(=O)Cc2c[nH]c3cc(Cl)ccc23)CC2CN(C(=O)c3ccc4c(c3)CC(=O)N4)CC21 (single isomer, unassigned) [I-22] | > 10 |
| > 10 | CNC(=O)[C@H](CCCc1ccccc1)NC(=O)C1CN(C(=O)Cc2c[nH]c3cc(Cl)ccc23)CC2CN(C(=O)c3ccc4c(c3)CC(=O)N4)CC21 (single isomer, unassigned) [I-23] | > 10 |
| > 10 | CNC(=O)[C@H](CCCc1ccccc1)NC(=O)C1CN(C(=O)Cc2c[nH]c3cc(Cl)ccc23)CC2CN(C(=O)c3ccc4c(c3)n(C)c(=O)n4C(C)C)CC21 (single isomer, unassigned) [I-86] | > 10 |
| ≤ 0.5 | CNC(=O)[C@H](CCCc1ccccc1)NC(=O)C1CN(C(=O)Cc2c[nH]c3cc(Cl)ccc23)CC2CN(C(=O)c3ccc4c(c3)n(C)c(=O)n4C(C)C)CC21 (single isomer, unassigned) [I-87] | > 10 |
| ≤ 0.5 | COc1cc(C(=O)N2CC3CN(C(=O)Cc4c[nH]c5cc(Cl)ccc45)CC(C(=O)NCC(=O)N(C)CCCc4ccccc4)C3C2)ccc1OC(C)C (single isomer, unassigned) [I-100] | 0.5 to 5 |
| > 10 | COc1cc(C(=O)N2CC3CN(C(=O)Cc4c[nH]c5cc(Cl)ccc45)CC(C(=O)NCC(=O)N(C)CCCc4ccccc4)C3C2)ccc1OC(C)C (single isomer, unassigned) [I-101] | > 10 |
| > 10 | CNC(=O)[C@H](Cc1c[nH]c2ccccc12)NC(=O)C1CN(C(=O)Cc2c[nH]c3cc(Cl)ccc23)CC2CN(C(=O)c3ccc(OC(C)C)c(OC)c3)CC21 (single isomer, unassigned) [I-110] | > 10 |
| ≤ 0.5 | CNC(=O)[C@H](Cc1c[nH]c2ccccc12)NC(=O)C1CN(C(=O)Cc2c[nH]c3cc(Cl)ccc23)CC2CN(C(=O)c3ccc(OC(C)C)c(OC)c3)CC21 (single isomer, unassigned) [I-111] | > 10 |
| 0.5 to 5 | COc1cc(C(=O)N2CC3CN(C(=O)Cc4c[nH]c5cc(Cl)ccc45)CC(C(=O)N[C@H]4CCCN(Cc5ccccc5)C4)C3C2)ccc1OC(C)C (single isomer, unassigned) [I-117] | > 10 |
| > 10 | COc1cc(C(=O)N2CC3CN(C(=O)Cc4c[nH]c5cc(Cl)ccc45)CC(C(=O)N[C@H]4CCCN(Cc5ccccc5)C4)C3C2)ccc1OC(C)C (single isomer, unassigned) [I-118] | > 10 |
| > 10 | CNC(=O)[C@H](CCCc1cccc(O)c1)NC(=O)C1CN(C(=O)Cc2c[nH]c3cc(Cl)ccc23)CC2CN(C(=O)c3ccc(OC(C)C)c(OC)c3)CC21 (single isomer, unassigned) [I-152] | > 10 |
| 0.5 to 5 | CNC(=O)[C@H](CCCc1cccc(O)c1)NC(=O)C1CN(C(=O)Cc2c[nH]c3cc(Cl)ccc23)CC2CN(C(=O)c3ccc(OC(C)C)c(OC)c3)CC21 (single isomer, unassigned) [I-153] | > 10 |
| – | CNC(=O)[C@H](CCCc1ccccc1)NC(=O)C1CN(C(=O)c2cn3ccncc3n2)CC2CN(C(=O)c3ccc(OC(C)C)c(OC)c3)CC21 (single isomer, unassigned) [I-194] | > 10 |
| > 10 | CNC(=O)[C@H](CCCc1ccccc1)NC(=O)C1CN(C(=O)c2cn3ccncc3n2)CC2CN(C(=O)c3ccc(OC(C)C)c(OC)c3)CC21 (single isomer, unassigned) [I-195] | > 10 |
| > 10 | CNC(=O)[C@H](CCCc1ccccc1)NC(=O)C1CN(C(=O)c2coc(Cl)n2)CC2CN(C(=O)c3ccc(OC(C)C)c(OC)c3)CC21 (single isomer, unassigned) [I-232] | > 10 |
| > 10 | CNC(=O)[C@H](CCCc1ccccc1)NC(=O)C1CN(C(=O)c2coc(Cl)n2)CC2CN(C(=O)c3ccc(OC(C)C)c(OC)c3)CC21 (single isomer, unassigned) [I-233] | > 10 |

| IC50 [2] [µM] | SMILES | IC50 [1] [µM] |
| --- | --- | --- |
| 0.5 to 5 | COc1cc(C(=O)N2CC3CN(C(=O)Cc4c[nH]c5cc(Cl)ccc45)CC(C(=O)N[C@@H](CCCc4cccc(O)c4)C(=O)NCCCCCN)C3C2)ccc1OC(C)C (single isomer, unassigned) [I-257] | > 10 |
| > 10 | CNC(=O)[C@H](CCCc1ccccc1)NC(=O)C1CN(C(=O)Cc2c[nH]c3cc(Cl)ccc23)CC2CN(C(=O)c3ccc(O)cc3)CC21 (stereo partly drawn) [I-4] | – |
| 5 to 10 | CNC(=O)[C@H](CCCc1ccccc1)NC(=O)C1CN(C(=O)Cc2c[nH]c3cc(Cl)ccc23)CC2CN(C(=O)c3ccc(OC)c(OC)c3)CC21 (stereo partly drawn) [I-33] | – |
| > 10 | CNC(=O)[C@H](CCCc1ccccc1)NC(=O)C1CN(C(=O)Cc2c[nH]c3cc(Cl)ccc23)CC2CN(C(=O)c3ccc4ncccc4c3)CC21 (stereo partly drawn) [I-36] | – |
| – | CNC(=O)[C@H](CCCc1ccccc1)NC(=O)C1CN(C(=O)Cc2c[nH]c3cc(Cl)ccc23)CC2CN(C(=O)c3cccc(OC)c3)CC21 (stereo partly drawn) [I-49] | > 10 |
| – | CNC(=O)[C@H](CCCc1ccccc1)NC(=O)C1CN(C(=O)Cc2c[nH]c3cc(Cl)ccc23)CC2CN(C(=O)C3CCCCC3)CC21 (stereo partly drawn) [I-51] | > 10 |
| – | CNC(=O)[C@H](CCCc1ccccc1)NC(=O)C1CN(C(=O)Cc2c[nH]c3cc(Cl)ccc23)CC2CN(C(=O)c3ccc4c(c3)CCO4)CC21 (stereo partly drawn) [I-53] | > 10 |
| – | CNC(=O)[C@H](CCCc1ccccc1)NC(=O)C1CN(C(=O)Cc2c[nH]c3cc(Cl)ccc23)CC2CN(C(=O)c3cccc(-c4cccnc4)c3)CC21 (stereo partly drawn) [I-63] | > 10 |
| – | CNC(=O)[C@H](CCCc1ccccc1)NC(=O)C1CN(C(=O)Cc2c[nH]c3cc(Cl)ccc23)CC2CN(C(=O)c3ncc(-c4ccccc4)s3)CC21 (stereo partly drawn) [I-68] | > 10 |
| – | CNC(=O)[C@H](CCCc1ccccc1)NC(=O)C1CN(C(=O)Cc2c[nH]c3cc(Cl)ccc23)CC2CN(C(=O)c3ccc4oc(=O)n(C)c4c3)CC21 (stereo partly drawn) [I-76] | > 10 |
| – | CNC(=O)[C@H](CCCC(C)(C)C)NC(=O)C1CN(C(=O)Cc2c[nH]c3cc(Cl)ccc23)CC2CN(C(=O)c3ccc(OC(C)C)c(OC)c3)CC21 (stereo partly drawn) [I-96] | > 10 |
| – | COc1cc(C(=O)N2CC3CN(C(=O)Cc4c[nH]c5cc(Cl)ccc45)CC(C(=O)NCCCCc4ccccc4)C3C2)ccc1OC(C)C (stereo not drawn) [I-119] | > 10 |
| – | CNC(=O)[C@@H](Cc1ccccc1)NC(=O)C1CN(C(=O)Cc2c[nH]c3cc(Cl)ccc23)CC2CN(C(=O)c3ccc(OC(C)C)c(OC)c3)CC21 (stereo partly drawn) [I-120] | > 10 |
| – | CNC(=O)[C@@H](Cc1ccc(O)cc1)NC(=O)C1CN(C(=O)Cc2c[nH]c3cc(Cl)ccc23)CC2CN(C(=O)c3ccc(OC(C)C)c(OC)c3)CC21 (stereo partly drawn) [I-121] | > 10 |
| > 10 | CNC(=O)[C@H](CCCc1ccccc1)NC(=O)C1CN(C(=O)Cc2cccnc2)CC2CN(C(=O)c3ccc(OC(C)C)c(OC)c3)CC21 (stereo partly drawn) [I-224] | – |
| > 10 | CNC(=O)[C@H](CCCc1ccccc1)NC(=O)C1CN(CCc2c[nH]c3cc(Cl)ccc23)CC2CN(C(=O)c3ccc(OC(C)C)c(OC)c3)CC21 (stereo partly drawn) [I-254, 5-(2-(6-chloro-1H-indol-3-yl)ethyl)-2-(4-isopropoxy-3-methoxybenzoyl)-N—((S)-1-(methylamino)-1-oxo-5-phenylpentan-2-yl)octahydro-1H-pyrrolo[3,4-c]pyridine-7-carboxamide] | – |

Reference: patent publication US12053459B2, “CDK2 inhibitors and methods of using the same” (Cedilla Therapeutics, Inc., priority 2021, dated 2024)
